According to US20260374818A1, “CATIONIC PEPTIDES WITH BROAD SPECTRUM ACTIVITY” (priority 2023, published 2026):

What was measured:
[1] = tested on: P. aeruginosa PAO1 biofilms; test: Checkerboard biofilm synergy of AB103-D with antimicrobials, PAO1; type: cell-based, Pseudomonas aeruginosa; conditions: for Antibiotic MBIC against biofilms: antibiotic alone, PAO1, BM2, at least 70% reduction; for FIC against biofilms: antibiotic used with AB103-D, PAO1, BM2, ≤0.5 synergy; for Fold Decrease in concentration of AB103-D: in combination of antibiotic with AB103-D; for Fold Decrease in concentration of AB103-D / Fold Decrease in concentration of Antibiotic: PAO1; for Fold Decrease in concentration of Antibiotic: in combination with AB103-D
[2] = tested on: MRSA USA 300 LAC biofilms; test: Checkerboard biofilm synergy of AB103-D with antimicrobials, MRSA; type: cell-based, methicillin resistant Staphylococcus aureus; conditions: for Biofilm MBIC in 10% TSB, 0.1% glucose: antibiotic alone, at least 70% reduction; for Biofilm MBIC in 10% TSB, 0.1% glucose / Fold decrease AB103-D / Fold decrease Antibiotic: MRSA; for FIC: antibiotic used with AB103-D, MRSA USA 300 LAC, ≤0.5 synergy; for Fold decrease AB103-D: in combination of antibiotic with AB103-D; for Fold decrease Antibiotic: in combination with AB103-D
[3] = tested on: P. aeruginosa PAO1 planktonic cells; test: MIC of antibiotics against planktonic cells, PAO1; type: cell-based, Pseudomonas aeruginosa; conditions: for MIC against planktonic cells in BM2 medium: PAO1, BM2; for MIC against planktonic cells in MHB medium: PAO1, MHB
[4] = tested on: MRSA USA 300 LAC planktonic cells; test: MIC of antibiotics against planktonic cells, MRSA; type: cell-based, methicillin resistant Staphylococcus aureus; conditions: MRSA planktonic

| Substance | Antibiotic MBIC against biofilms [1] | FIC against biofilms [1] | Fold Decrease in concentration of AB103-D [1] | Fold Decrease in concentration of Antibiotic [1] | Biofilm MBIC in 10% TSB, 0.1% glucose [2] | FIC [2] | Fold decrease AB103-D [2] | Fold decrease Antibiotic [2] | MIC against planktonic cells in BM2 medium [3] | MIC against planktonic cells in MHB medium [3] | MIC in 10% TSB, 0.1% glucose [4] | MIC in MHB medium [4] |
| --- | --- | --- | --- | --- | --- | --- | --- | --- | --- | --- | --- | --- |
| Benzalkonium-C1 | 16 µg/mL | 0.51 | 2-fold | 128-fold | 1 | 0.5 | 4-fold | 4-fold | 16 µg/mL | 16 µg/mL | 1 | 0.25 µg/mL |
| Colistin | 4 µg/mL | 0.63 | 8-fold | 2-fold | 2 | 0.63 | 2-fold | 8-fold | 4 µg/mL | 1 µg/mL | 4 | 8 µg/mL |
| Gentamicin | 4 µg/mL | 0.53 | 2-fold | 32-fold | 0.03 | 1.13 | No | 8-fold | 4 µg/mL | 1 µg/mL | 0.06 | 0.06 µg/mL |
| Polymyxin B | 2 µg/mL | 0.56 | 16-fold | 2-fold | 2 | 0.5 | 4-fold | 4-fold | 2 µg/mL | 2 µg/mL | 2 | 4 µg/mL |
| Polyvinylpyrrolidone-Iodine | 313 µg/mL | 0.52 | 2-fold | 64-fold | 156 | 0.63 | 2-fold | 8-fold | 313 µg/mL | 2500 µg/mL | 156 | 2500 µg/mL |
